Experimental data: patent US6358885B1, “Substituted phenylheterocyclic herbicides” (Mississippi State University, priority 1992, dated 2002)

Experiments:
chickweed = experiment: Test B preemergence/postemergence greenhouse plant response rating 0 to 10; type: in vivo, Stellaria media; details: POSTEMERGENCE
Procedure, shortened: (§1)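 Test chemicals, dissolved in a non-phytotoxic solvent, were applied to soil at planting and, at the same time, over foliage of seedlings at the one to four leaf stage.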

corn [1] = experiment: as above; type: in vivo, Zea mays; details: for Plant response rating, Corn: 0 to 10 scale
Procedure, shortened: as §1

morningglory [2] = experiment: as above; type: in vivo, Ipomoea hederacea; details: 0 to 10 scale
Procedure, shortened: as §1

soybean = experiment: as above; type: in vivo, Glycine max; details: 0 to 10 scale
Procedure, shortened: as §1

sugar beet = experiment: as above; type: in vivo, Beta vulgaris; details: 0 to 10 scale
Procedure, shortened: as §1

velvetleaf [3] = experiment: as above; type: in vivo, Abutilon theophrasti; details: 0 to 10 scale
Procedure, shortened: as §1

corn [4] = experiment: Test C preemergence/postemergence greenhouse plant response rating 0 to 100; type: in vivo, Zea mays; details: POSTEMERGENCE
Procedure, shortened: (§2)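 Compounds in non-phytotoxic solvent went onto sandy loam before emergence (seeded one day earlier) or onto plants at the one-to-four leaf stage. Duck salad was treated via flood water (~2.5 cm, maintained) over silt loam.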

crabgrass = experiment: as above; type: in vivo, Digitaria sanguinalis; details: POSTEMERGENCE
Procedure, shortened: as §2

lambsquarters = experiment: as above; type: in vivo, Chenopodium album; details: POSTEMERGENCE
Procedure, shortened: as §2

morningglory [5] = experiment: as above; type: in vivo, Ipomoea hederacea; details: POSTEMERGENCE
Procedure, shortened: as §2

velvetleaf [6] = experiment: as above; type: in vivo, Abutilon theophrasti; details: POSTEMERGENCE
Procedure, shortened: as §2

wheat = experiment: as above; type: in vivo, Triticum aestivum; details: POSTEMERGENCE
Procedure, shortened: as §2

bermudagrass = experiment: Test G preemergence/postemergence greenhouse plant response rating 0 to 100; type: in vivo, Cynodon dactylon; details: 0 to 100 scale
Procedure, shortened: (§3)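 Greenhouse pots, one species each; non-phytotoxic solvent vehicle. Read-out: visual injury vs untreated, 13–21 DAT. Dash denotes no result.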

large crabgrass = experiment: as above; type: in vivo, Digitaria sanguinalis; details: 0 to 100 scale
Procedure, shortened: as §3

With `CC(C)N1C(=O)COc2cc(F)c(-c3nn4c(c3Cl)CCCC4)cc21` [Compound 31] the “Plant response rating, Chickweed” value (chickweed; Rate 10 g/ha, 0 to 10 scale) was 10, the “Plant response rating (0 to 10 scale), Chickweed” value (chickweed; Rate 50 g/ha) was 10 and the “Plant response rating, Corn” value (corn [1]; POSTEMERGENCE, Rate 10 g/ha) was 4. The “Plant response rating (0 to 10 scale), Corn” value (corn [1]; POSTEMERGENCE, Rate 50 g/ha) was 3, the “Plant response rating, Corn” value (corn [1]; PREEMERGENCE, Rate 50 g/ha) was 0 and the “Plant response rating, Morningglory” value (morningglory [2]; POSTEMERGENCE, Rate 10 g/ha) was 9. The “Plant response rating, Morningglory” value (morningglory [2]; POSTEMERGENCE, Rate 50 g/ha) was 10, the “Plant response rating, Morningglory” value (morningglory [2]; PREEMERGENCE, Rate 50 g/ha) was 5 and the “Plant response rating, Soybean” value (soybean; POSTEMERGENCE, Rate 10 g/ha) was 7. For the same molecule, the “Plant response rating, Soybean” value (soybean; POSTEMERGENCE, Rate 50 g/ha) was 7, the “Plant response rating, Soybean” value (soybean; PREEMERGENCE, Rate 50 g/ha) was 0 and the “Plant response rating, Sugar beet” value (sugar beet; POSTEMERGENCE, Rate 10 g/ha) was 10. For the same molecule, the “Plant response rating, Sugar beet” value (sugar beet; POSTEMERGENCE, Rate 50 g/ha) was 10, the “Plant response rating, Sugar beet” value (sugar beet; PREEMERGENCE, Rate 50 g/ha) was 10 and the “Plant response rating, Velvetleaf” value (velvetleaf [3]; POSTEMERGENCE, Rate 10 g/ha) was 10. For the same molecule, the “Plant response rating, Velvetleaf” value (velvetleaf [3]; POSTEMERGENCE, Rate 50 g/ha) was 10, the “Plant response rating, Velvetleaf” value (velvetleaf [3]; PREEMERGENCE, Rate 50 g/ha) was 9 and the “Plant response rating, Corn” value (corn [4]; 62 g/ha, 0 to 100 scale) was 50. For the same molecule, the “Plant response rating (0 to 100), Corn” value (corn [4]; Rate 1 g/ha) was 20, the “Plant response rating (0 to 100), Corn” value (corn [4]; Rate 4 g/ha) was 30 and the “Plant response rating (0 to 100), Corn” value (corn [4]; Rate 16 g/ha) was 40. For the same molecule, the “Plant response rating, Crabgrass” value (crabgrass; 62 g/ha, 0 to 100 scale) was 50, the “Plant response rating (0 to 100), Crabgrass” value (crabgrass; Rate 1 g/ha) was 10 and the “Plant response rating (0 to 100), Crabgrass” value (crabgrass; Rate 4 g/ha) was 20. The “Plant response rating (0 to 100), Crabgrass” value (crabgrass; Rate 16 g/ha) was 30, the “Plant response rating Lambsquarters” value (lambsquarters; 62 g/ha, 0 to 100 scale) was 95 and the “Plant response rating (0 to 100), Lambsquarters” value (lambsquarters; Rate 1 g/ha) was 40. For the same molecule, the “Plant response rating (0 to 100), Lambsquarters” value (lambsquarters; Rate 16 g/ha) was 85, the “Plant response rating, Morningglory” value (morningglory [5]; 62 g/ha, 0 to 100 scale) was 100 and the “Plant response rating (0 to 100), Morningglory” value (morningglory [5]; Rate 1 g/ha) was 70. For the same molecule, the “Plant response rating (0 to 100), Morningglory” value (morningglory [5]; Rate 4 g/ha) was 100, the “Plant response rating (0 to 100), Morningglory” value (morningglory [5]; Rate 16 g/ha) was 100 and the “Plant response rating, Velvetleaf” value (velvetleaf [6]; 62 g/ha, 0 to 100 scale) was 100. For the same molecule, the “Plant response rating (0 to 100), Velvetleaf” value (velvetleaf [6]; Rate 1 g/ha) was 85, the “Plant response rating (0 to 100), Velvetleaf” value (velvetleaf [6]; Rate 4 g/ha) was 95 and the “Plant response rating (0 to 100), Velvetleaf” value (velvetleaf [6]; Rate 16 g/ha) was 100. The “Plant response rating, Wheat” value (wheat; 62 g/ha, 0 to 100 scale) was 40, the “Plant response rating (0 to 100), Wheat” value (wheat; Rate 1 g/ha) was 10 and the “Plant response rating (0 to 100), Wheat” value (wheat; Rate 4 g/ha) was 30. The “Plant response rating (0 to 100), Wheat” value (wheat; Rate 16 g/ha) was 30, the “Plant response rating, Bermudagrass” value (bermudagrass; POSTEMERGENCE, Rate 125 g/ha) was 0 and the “Plant response rating, Bermudagrass” value (bermudagrass; POSTEMERGENCE, Rate 250 g/ha) was 0. For the same molecule, the “Plant response rating, Bermudagrass” value (bermudagrass; PREEMERGENCE, Rate 125 g/ha) was 0, the “Plant response rating, Bermudagrass” value (bermudagrass; PREEMERGENCE, Rate 250 g/ha) was 0 and the “Plant response rating, Large Crabgrass” value (large crabgrass; POSTEMERGENCE, Rate 125 g/ha) was 0. For the same molecule, the “Plant response rating, Large Crabgrass” value (large crabgrass; POSTEMERGENCE, Rate 250 g/ha) was 0, the “Plant response rating, Large Crabgrass” value (large crabgrass; PREEMERGENCE, Rate 125 g/ha) was 0 and the “Plant response rating, Large Crabgrass” value (large crabgrass; PREEMERGENCE, Rate 250 g/ha) was 0.
